Consider three compounds from patent US3951987A, “Tetrahydropyridine derivatives” (priority 1975, dated 1976).

The test system of one data set is rats. The data set can be described thus: Standard "open field" test (50 percent decrease in the number of diameter crossings vs untreated controls). The note with it: Rattus norvegicus, po, read-out: ED50 (dosage which caused a 50 percent decrease in the number of diameter crossings). The class given is in vivo. The text has this:
The dosage which caused a 50 percent decrease (in comparison to the untreated controls) in the number of diameter crossings is expressed as the ED50.

A further data set can be described thus: Toxicity (mouse), p.o. The note with it: in vivo, po.

The ED50 is the midpoint of the dose-response relation. Broadly, the LD50 is the dose at which mortality reaches 50%. A low value points to greater toxicity.

Regarding `CCC(=O)Nc1ccc(OCCN2CC=C(c3ccc(F)cc3)CC2)cc1` [4'-[2-[4-(p-fluoro-phenyl)-3,6-dihydro-1(2H)-pyridyl)-ethoxy]-propionanilide], the ED50 in the data set with rats was found to be 0.6 mg/kg. Further, the LD50 in “Toxicity (mouse), p.o.” was 150 to 300 mg/kg.

For the compound `CC(=O)Nc1ccc(OCCN2CC=C(c3ccc(F)cc3)CC2)cc1` [4'-{2-[4-(p-fluorophenyl)-3,6-dihydro-1(2H)-pyridyl]ethoxy}acetanilide], the ED50 with rats turned out to be 0.6 mg/kg. Besides, the LD50 in the data set “Toxicity (mouse), p.o.” lay in the range of 250 to 500 mg/kg.

Regarding `Nc1ccc(OCCN2CC=C(c3ccc(F)cc3)CC2)cc1` [p-[2-[4-(p-fluoro-phenyl)-3,6-dihydro-1(2H)-pyridyl]-ethoxy]-aniline], the ED50 in the data set with rats was found to be 0.6 mg/kg. The same compound returned an LD50 in “Toxicity (mouse), p.o.” of 250 to 500 mg/kg.
